According to article PMC7024302, “Ultrashort Cationic Lipopeptides–Effect of N-Terminal Amino Acid and Fatty Acid Type on Antimicrobial Activity and Hemolysis” (Molecules, 2020):
≈ marks a conversion by molar mass, not a printed value. Like-named read-outs stand apart in the source and are kept apart here. Residues, ends and D or L forms follow the SMILES beside them.

Columns and labels:
[1] = Determination of peptide hydrophobicity with RP-HPLC (adjusted retention time); assay type: physicochemical; conditions: for Adjusted retention time: Table 2, nC = carbon atoms in fatty acid chain; for Adjusted retention time / tR’: RP-HPLC C18, linear 10–55% acetonitrile over 60 min; for tR’: Table 3, adjusted retention time as hydrophobicity
Summary of the method: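 Peptides at 1 g/L in water with 0.1% TFA run on a C18 column (3.0 × 100 mm, 5 µm). Elution with a linear 10–55% acetonitrile gradient over 60 min, 0.1% TFA in both eluents, 0.5 mL/min, 25.0 ± 0.1 °C. Detection at 214 nm, in triplicate.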

[2] = test system: K. pneumoniae ATCC 700603; assay type: cell-based, Klebsiella pneumoniae; conditions: ATCC 700603, 18 h
Summary of the method: (§1)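 Lipopeptides, tested from 0.5 to 256 µg/mL, were incubated with bacteria (5 × 10^5 CFU/mL, MHB) for 18 h at 37 °C following CLSI guidance. Triplicate determinations gave the MIC as the lowest growth-inhibiting concentration.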

S. aureus ATCC 25923 = assay type: cell-based, Staphylococcus aureus; conditions: ATCC 25923, 18 h
Summary of the method: as §1

[3] = test system: S. aureus ATCC 33591 (MRSA); assay type: cell-based, Staphylococcus aureus; conditions: ATCC 33591, 18 h
Summary of the method: as §1

[4] = test system: A. baumannii ATCC BAA-1605; assay type: cell-based, Acinetobacter baumannii; conditions: ATCC BAA-1605, 18 h
Summary of the method: as §1

C. albicans ATCC 10231 = assay type: cell-based, Candida albicans
[5] = test system: human red blood cells (hRBCs); assay type: cell-based; conditions: red cells of human, 1 h
Summary of the method: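 Fresh EDTA-anticoagulated human RBCs, PBS-washed, at 4% (v/v) final were exposed to lipopeptides at 0.5–256 µg/mL for 1 h at 37 °C. Released haemoglobin in supernatant read at 540 nm; PBS as 0% and 1% Triton X-100 as 100% haemolysis. Triplicates.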

E. faecium ATCC 700221 = assay type: cell-based, Enterococcus faecium; conditions: ATCC 700221, 18 h
Summary of the method: as §1

K. aerogenes ATCC 13048 = assay type: cell-based, Klebsiella aerogenes; conditions: ATCC 13048, 18 h
Summary of the method: as §1

P. aeruginosa ATCC 9027 = assay type: cell-based, Pseudomonas aeruginosa; conditions: ATCC 9027, 18 h
Summary of the method: as §1

[6] = 0.1% TFA, 25.0 °C, UV 214 nm, triplicate

Row | Structure (SMILES) | Adjusted retention time [1, 6] [min] | tR’ [1, 6] [min] | MIC K [2] | MIC SA (S. aureus ATCC 25923) | MIC S [3] | MIC A [4] [µg/mL] | MIC CA (C. albicans ATCC 10231; ATCC 10231, 24 h, pH 7) | HC50 [5] | MIC E1 (E. faecium ATCC 700221) [µg/mL] | MIC E2 (K. aerogenes ATCC 13048) | MIC PA (P. aeruginosa ATCC 9027) [µg/mL] | tR’ (adjusted retention time) ([1]; Table 1 and b9, measure of hydrophobicity, RP-HPLC, Phenomenex Luna C18(2) 3.0 × 100 mm, 5 µm, linear 10–55% acetonitrile in water over 60 min, 0.1% TFA, 0.5 mL/min, 25.0 °C, UV 214 nm, peptide 1 g/L, triplicate) [min] | ∆tR ([1]; tR’ of the lipopeptide minus tR’ of C10-RR-NH2 or C12-RR-NH2, same RP-HPLC conditions) [min] | MIC CA (C. albicans ATCC 10231; C. albicans ATCC 10231, RPMI-1640 with 2% D-glucose, MOPS pH 7.0, 2 × 10^3 CFU/mL, 0.5–256 µg/mL, 37 °C, 24 h, triplicate) [µg/mL]
1 | CCCCCCCCCCCCCC(=O)N[C@@H](CC(C)C)C(=O)N[C@@H](CCCNC(=N)N)C(=O)N[C@@H](CCCNC(=N)N)C(N)=O [compound 46, C14-LRR-NH2] (HELM PEPTIDE1{[CCCCCCCCCCCCCC(=O)[*:2]].L.R.R.[am]}$$$$V2.0) | 46.441 | 46.44 | 128 µg/mL (≈ 196 µM) | 4 µg/mL (≈ 6.13 µM) | 16 µg/mL (≈ 24.5 µM) | 64 (≈ 98 µM) | 4 µg/mL (≈ 6.13 µM) | 29.50 (±1.05) µg/mL | 8 (≈ 12.3 µM) | 128 µg/mL (≈ 196 µM) | 4 (≈ 6.13 µM) | – | – | –
2 | CCCCCCCCCCCCCC(=O)N[C@@H](Cc1ccccc1)C(=O)N[C@@H](CCCNC(=N)N)C(=O)N[C@@H](CCCNC(=N)N)C(N)=O [compound 26, C14-FRR-NH2] (HELM PEPTIDE1{[CCCCCCCCCCCCCC(=O)[*:2]].F.R.R.[am]}$$$$V2.0) | – | 47.75 | 64 µg/mL (≈ 93.2 µM) | 4 µg/mL (≈ 5.82 µM) | 32 µg/mL (≈ 46.6 µM) | 128 (≈ 186 µM) | 2 µg/mL (≈ 2.91 µM) | 39.09 (±1.18) µg/mL | 16 (≈ 23.3 µM) | 64 µg/mL (≈ 93.2 µM) | 8 (≈ 11.6 µM) | – | – | –
3 | CCCCCCCCCCCC(=O)N[C@H](C(=O)N[C@@H](CCCNC(=N)N)C(=O)N[C@@H](CCCNC(=N)N)C(N)=O)[C@@H](C)CC [compound 37, C12-IRR-NH2] (HELM PEPTIDE1{[CCCCCCCCCCCC(=O)[*:2]].I.R.R.[am]}$$$$V2.0) | 39.047 | 39.05 | 256 µg/mL (≈ 410 µM) | 8 µg/mL (≈ 12.8 µM) | 8 µg/mL (≈ 12.8 µM) | 64 (≈ 102 µM) | 16 µg/mL (≈ 25.6 µM) | 120.40 (±1.55) µg/mL | 8 (≈ 12.8 µM) | 256 µg/mL (≈ 410 µM) | 16 (≈ 25.6 µM) | – | – | –
4 | CCCCCCCCCCCC(=O)N[C@@H](Cc1ccc(O)cc1)C(=O)N[C@@H](CCCNC(=N)N)C(=O)N[C@@H](CCCNC(=N)N)C(N)=O [compound 101, C12-YRR-NH2] (HELM PEPTIDE1{[CCCCCCCCCCCC(=O)[*:2]].Y.R.R.[am]}$$$$V2.0) | – | 36.17 | 128 µg/mL (≈ 190 µM) | 8 µg/mL (≈ 11.9 µM) | 8 µg/mL (≈ 11.9 µM) | 32 (≈ 47.4 µM) | 32 µg/mL (≈ 47.4 µM) | 123.08 (±1.12) µg/mL | 16 (≈ 23.7 µM) | 128 µg/mL (≈ 190 µM) | 16 (≈ 23.7 µM) | – | – | –
5 | CCCCCCCCCC(=O)N[C@@H](Cc1ccccc1)C(=O)N[C@@H](CCCNC(=N)N)C(=O)N[C@@H](CCCNC(=N)N)C(N)=O [compound 24, C10-FRR-NH2] (HELM PEPTIDE1{[CCCCCCCCCC(=O)[*:2]].F.R.R.[am]}$$$$V2.0) | – | 34.68 | >256 (-) µg/mL | 16 (>16) µg/mL | 16 (>16) µg/mL | 64 (≈ 101 µM) | 64 µg/mL (≈ 101 µM) | >256 µg/mL | 32 (≈ 50.7 µM) | >256 (-) µg/mL | 32 (≈ 50.7 µM) | 34.68 | 10.38 | –
6 | CCCCCCCCCCCCCCCC(=O)N[C@@H](CCCNC(=N)N)C(=O)N[C@@H](CCCNC(=N)N)C(N)=O [compound 5, C16-RR-NH2, reference compound] (HELM PEPTIDE1{[CCCCCCCCCCCCCCCC(=O)[*:2]].R.R.[am]}$$$$V2.0) | – | 46.51 | 32 µg/mL (≈ 56.4 µM) | 8 µg/mL (≈ 14.1 µM) | 8 µg/mL (≈ 14.1 µM) | 32 (≈ 56.4 µM) | – | 22.91 (±1.18) µg/mL | 8 (≈ 14.1 µM) | 32 µg/mL (≈ 56.4 µM) | 16 (≈ 28.2 µM) | – | – | 4 (≈ 7.04 µM)
7 | CCCCCCCCCCCCCC(=O)N[C@@H](CCCC)C(=O)N[C@@H](CCCNC(=N)N)C(=O)N[C@@H](CCCNC(=N)N)C(N)=O [compound 66, C14-NleRR-NH2] (HELM PEPTIDE1{[CCCCCCCCCCCCCC(=O)[*:2]].[Nle].R.R.[am]}$$$$V2.0) | 46.681 | – | 32 µg/mL (≈ 49 µM) | 4 µg/mL (≈ 6.13 µM) | 8 µg/mL (≈ 12.3 µM) | 64 (≈ 98 µM) | 4 µg/mL (≈ 6.13 µM) | 37.54 (±1.39) µg/mL | 8 (≈ 12.3 µM) | 32 µg/mL (≈ 49 µM) | 4 (≈ 6.13 µM) | – | – | –
8 | CCCCCCCCCCCC(=O)N[C@@H](CCCC)C(=O)N[C@@H](CCCNC(=N)N)C(=O)N[C@@H](CCCNC(=N)N)C(N)=O [compound 65, C12-NleRR-NH2] (HELM PEPTIDE1{[CCCCCCCCCCCC(=O)[*:2]].[Nle].R.R.[am]}$$$$V2.0) | 39.958 | – | 256 µg/mL (≈ 410 µM) | 8 µg/mL (≈ 12.8 µM) | 8 µg/mL (≈ 12.8 µM) | 32 (≈ 51.2 µM) | 16 (>16) µg/mL | >256 µg/mL | 8 (≈ 12.8 µM) | 256 µg/mL (≈ 410 µM) | 8 (≈ 12.8 µM) | – | – | –
9 | CCCCCCCCCCCC(=O)N[C@@H](CCC)C(=O)N[C@@H](CCCNC(=N)N)C(=O)N[C@@H](CCCNC(=N)N)C(N)=O [compound 69, C12-NvaRR-NH2] (HELM PEPTIDE1{[CCCCCCCCCCCC(=O)[*:2]].[Nva].R.R.[am]}$$$$V2.0) | – | 37.67 | 256 µg/mL (≈ 419 µM) | 8 µg/mL (≈ 13.1 µM) | 16 µg/mL (≈ 26.2 µM) | 64 (≈ 105 µM) | 32 µg/mL (≈ 52.4 µM) | 207.62 (±5.27) µg/mL | 16 (≈ 26.2 µM) | 256 µg/mL (≈ 419 µM) | 32 (≈ 52.4 µM) | – | – | –
10 | CCCCCCCCCCCCCC(=O)N1CCC[C@H]1C(=O)N[C@@H](CCCNC(=N)N)C(=O)N[C@@H](CCCNC(=N)N)C(N)=O [compound 74, C14-PRR-NH2] | – | 42.61 | 256 µg/mL (≈ 402 µM) | 16 µg/mL (≈ 25.1 µM) | 8 µg/mL (≈ 12.6 µM) | 64 (≈ 100 µM) | 8 µg/mL (≈ 12.6 µM) | 53.41 (±1.84) µg/mL | 8 (≈ 12.6 µM) | 256 µg/mL (≈ 402 µM) | 16 (≈ 25.1 µM) | – | – | –
